# Experimental data published in patent US11447502B2, “Antibacterial agents: dual-targeted RNA polymerase inhibitors” (priority 2018, dated 2022).
# Key:
# Assay in all cases: microbe, parasite or virus in culture
# Type in all cases: cell-based
# [1] = tested on: rifampin-resistant M. tuberculosis 20626 (rpoB-H′526′D); settings: Mycobacterium tuberculosis; read-out: antibacterial activity rifampin-resistant M. tuberculosis 20626 (rpoB-H′526′D) MIC
# [2] = tested on: rifampin-resistant M. tuberculosis 4457 (rpoB-H′526′Y); settings: Mycobacterium tuberculosis; read-out: antibacterial activity rifampin-resistant M. tuberculosis 4457 (rpoB-H′526′Y) MIC
# [3] = tested on: rifampin-resistant M. tuberculosis 10545 (rpoB-S′531′L); settings: Mycobacterium tuberculosis; read-out: antibacterial activity rifampin-resistant M. tuberculosis 10545 (rpoB-S′531′L) MIC
SMILES,MIC [1],MIC [2],MIC [3]
"CO[C@H]1/C=C/O[C@@]2(C)Oc3c(C)c(O)c4c(O)c(c(/C=N/N5CCN(CCN6CCN(c7ccc(F)cc7NC(=O)C(Cc7ccccc7)NC(=O)c7ccccc7F)CC6)CC5)c(O)c4c3C2=O)NC(=O)/C(C)=C\C=C\[C@H](C)[C@H](O)[C@@H](C)[C@@H](O)[C@@H](C)[C@H](OC(C)=O)[C@@H]1C (some centres unmarked) [IX-403, Rifamycin SV—(CHN)—IX-402 Conjugate]",25 µg/mL,12.5 µg/mL,12.5 µg/mL
"[2H]C([2H])(c1ccccc1)C(NC(=O)c1ccccc1F)C(=O)Nc1cc(F)ccc1N1CCN(/N=C/C2=C3NC(=O)/C(C)=C\C=C\[C@H](C)[C@H](O)[C@@H](C)[C@@H](O)[C@@H](C)[C@H](OC(C)=O)[C@H](C)[C@@H](OC)/C=C/O[C@@]4(C)Oc5c(C)c(O)c(c(c5C4=O)C2=O)C3=O)CC1 (some centres unmarked) [IX-476a, Rifamycin S—(CHN)—IX-370a Conjugate]",–,3.13 µg/mL,6.25 µg/mL
